Reference: patent publication US6649608B2, “2,4-di(hetero-)arylamino (oxy)-5-substituted pyrimidines as antineoplastic agents” (AstraZeneca AB, priority 2000, dated 2003)

How the values were obtained:
[1] = target: T1, CDK4/Cyclin D1 (Homo sapiens, UniProt P11802); assay: CDK4 Inhibition Assay (SPA, GST-Rb substrate); type: biochemical; settings: in vitro kinase assay; read-out: CDK4 inhibitory activity IC50
T1 construct: made in house; host or cells: SF21 insect cells (Spodoptera frugiperda), baculovirus co-infection; vector pVL1393
Protocol: The compounds were tested in an in vitro kinase assay in 96 well format using Scintillation Proximity Assay (SPA—obtained from Amersham) for measuring incorporation of [γ-33-P]-Adenosine Triphosphate into a test substrate (GST-Retinoblastoma). In each well was placed the compound to be tested (diluted in DMSO and water to correct concentrations) and in control wells either p16 as an inhibitor control or DMSO as a positive control.
Approximately 0.5 μl of CDK4/Cyclin D1 partially-purified enzyme (amount dependent on enzyme activity) diluted in 25 μl incubation buffer was added to each well then 20 μl of GST-Rb/ATP/ATP33 mixture (containing 0.5 μg GST-Rb and 0.2 μM ATP and 0.14 μCi [γ-33-P]-Adenosine Triphosphate), and the resulting mixture shaken gently, then incubated at room temperature for 60 minutes. […]
The plates were sealed with Topseal-S plate sealers, left for two hours then spun at 2500 rpm, 1124×g., for 5 minutes. The plates were read on a Topcount for 30 seconds per well. […]
E. coli paste was resuspended in 10 ml/g of NETN buffer (50 mM Tris pH 7.5, 120 mM NaCl, 1 mM EDTA, 0.5% v/v NP-40, 1 mM PMSF, 1 ug/ml leupeptin, 1 ug/ml aprotinin and 1 ug/ml pepstatin) and sonicated for 2×45 seconds per 100 ml homogenate. […] The final product was analysed by Sodium Dodeca Sulfate (SDS) PAGE (Polyacrylamide gel) using 8-16% Tris-Glycine gels (Novex, San Diego, USA). […]

[2] = target: T2, human Focal Adhesion Kinase (FAK) (Homo sapiens, UniProt Q05397); assay: FAK3 Kinase Inhibition Assay (in vitro enzyme ELISA); type: biochemical; settings: read-out: FAK inhibitory activity IC50
T2 construct: FAK (fall length human cDNA described by Andre et al); made in house; host or cells: insect cells (Sf21; printed 'Sf12'), baculovirus, pFastbac 1; cell lysate supernatant used as enzyme stock
Description: This assay determines the ability of a test compound to inhibit tyrosine kinase activity of human Focal Adhesion Kinase (FAK).
DNA encoding FAK is obtained by total gene synthesis (Edwards M, International Biotechnology Lab 5(3), 19-25, 1987) or by cloning. These are then expressed in a suitable expression system to obtain polypeptide with tyrosine kinase activity.
Active FAK protein has been previously expressed in a baculovirus system using a similar N-terminal 6-histidine tag (Protein Expression And Purification, 1996, 7: 12-18). The human FAK cDNA was cloned into the baculovirus transplacement vector, pFastbac 1 (Life Technologies), and the recombinant construct was co-transfected into insect cells (for example Spodoptera frugiperda 21(Sf21)) with viral DNA to prepare recombinant baculovirus (details of the methods for the assembly of recombinant DNA molecules and the preparation and use of recombinant baculovirus can be found in standard texts for example Sambrook et al, 1989, Molecular cloning—A Laboratory Manual, 2nd edition, Cold Spring Harbour Laboratory Press and O'Reilly et al, 1992, Baculovirus Expression Vectors—A Laboratory Manual, W.H. Freeman and Co, New York. Details specific to the use of the pFastbac (‘Bac to Bac’) system are provided in Anderson et al., 1995, FOCUS (Life Technologies Bulletin Magazine), 17, p53.) […]

T2 sequence (Q05397 whole entry): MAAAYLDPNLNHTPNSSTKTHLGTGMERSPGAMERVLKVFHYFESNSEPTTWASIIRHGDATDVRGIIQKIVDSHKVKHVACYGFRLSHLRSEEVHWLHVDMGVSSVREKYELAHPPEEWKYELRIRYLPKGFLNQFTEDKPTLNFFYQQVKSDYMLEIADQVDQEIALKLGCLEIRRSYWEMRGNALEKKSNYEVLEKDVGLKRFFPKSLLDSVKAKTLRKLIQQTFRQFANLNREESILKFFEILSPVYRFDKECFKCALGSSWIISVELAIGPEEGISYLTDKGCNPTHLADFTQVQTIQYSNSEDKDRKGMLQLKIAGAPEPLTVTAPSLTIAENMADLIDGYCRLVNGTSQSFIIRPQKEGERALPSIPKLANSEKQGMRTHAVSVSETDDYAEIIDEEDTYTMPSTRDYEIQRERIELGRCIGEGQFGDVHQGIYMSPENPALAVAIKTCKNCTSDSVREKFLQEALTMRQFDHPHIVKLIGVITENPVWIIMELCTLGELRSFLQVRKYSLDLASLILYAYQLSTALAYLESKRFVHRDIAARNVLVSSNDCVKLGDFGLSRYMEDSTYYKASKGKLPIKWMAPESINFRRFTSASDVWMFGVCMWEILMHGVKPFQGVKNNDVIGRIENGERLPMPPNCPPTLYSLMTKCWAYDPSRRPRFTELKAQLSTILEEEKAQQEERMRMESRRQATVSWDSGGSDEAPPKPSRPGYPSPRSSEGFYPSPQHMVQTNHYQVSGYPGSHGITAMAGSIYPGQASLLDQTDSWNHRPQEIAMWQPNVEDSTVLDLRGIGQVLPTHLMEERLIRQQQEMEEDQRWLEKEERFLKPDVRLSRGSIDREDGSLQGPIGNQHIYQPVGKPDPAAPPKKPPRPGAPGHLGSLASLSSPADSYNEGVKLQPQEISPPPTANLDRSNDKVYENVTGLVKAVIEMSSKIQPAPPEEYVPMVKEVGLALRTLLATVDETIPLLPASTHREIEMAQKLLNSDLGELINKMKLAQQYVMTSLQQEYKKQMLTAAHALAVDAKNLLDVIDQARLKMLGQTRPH
T1 sequence (P11802 whole entry): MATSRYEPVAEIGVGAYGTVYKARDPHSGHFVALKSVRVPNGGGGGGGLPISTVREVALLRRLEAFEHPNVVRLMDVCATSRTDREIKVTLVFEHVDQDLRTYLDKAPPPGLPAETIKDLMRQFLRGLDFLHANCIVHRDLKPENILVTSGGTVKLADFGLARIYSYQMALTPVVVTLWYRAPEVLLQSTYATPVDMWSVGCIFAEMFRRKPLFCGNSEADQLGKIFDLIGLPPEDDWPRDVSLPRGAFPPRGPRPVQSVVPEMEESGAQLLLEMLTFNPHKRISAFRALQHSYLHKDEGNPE
T1 sequence (P24385 whole entry partner): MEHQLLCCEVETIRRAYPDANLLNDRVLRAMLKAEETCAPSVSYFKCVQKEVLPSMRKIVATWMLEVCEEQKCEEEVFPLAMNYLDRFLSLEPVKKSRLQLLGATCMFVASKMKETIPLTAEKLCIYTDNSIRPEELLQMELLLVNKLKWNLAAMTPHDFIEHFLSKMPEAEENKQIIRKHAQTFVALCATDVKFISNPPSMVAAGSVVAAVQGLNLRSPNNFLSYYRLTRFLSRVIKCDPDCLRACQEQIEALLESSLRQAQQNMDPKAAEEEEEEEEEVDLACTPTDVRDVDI

Compound	IC50 [1] [nM]	IC50 [2] [nM]
O=C(NCCN1CCCCC1)c1ccc(Nc2ncc(Br)c(Nc3ccccc3)n2)cc1 [Example 45]	235	–
CCCCN(CCCC)CCCNC(=O)c1ccc(Nc2ncc(Br)c(Nc3ccccc3)n2)cc1 [Example 47]	–	97
O=C(c1ccc(Nc2ncc(Br)c(Nc3ccccc3)n2)cc1)N1CCC(N2CCCC2)CC1 [Example 52]	–	814
